Measurements: patent US20150175603A1, “TRICYCLIC COMPOUNDS AS KAT II INHIBITORS” (PFIZER INC., priority 2012, published 2015)
Counter-ions that a name gives are not always drawn.

Target: human KAT II (hKAT II) enzyme (Homo sapiens, UniProt Q8N5Z0)
Assay: KAT II Inhibition Spectra Assay
Type: biochemical
Details: single determination unless marked a (geometric mean of 2-4 determinations); decrease in OD370, L-kynurenine substrate, 37° C. for 15-20 h; read-out: KATII IC50
Protocol: KAT II Inhibition Spectra Assay
Formation of kynurenic acid (KYNA) is indirectly assessed by a decrease in light absorbance at 370 nm (OD370) as the L-kynurenine (KYN) substrate is converted by the human KAT II (hKAT II) enzyme into KYNA. An inhibitor would therefore inhibit the decrease in OD370.
The protocol was performed by placing the following reagents into a Costar 384 well black plate (30 μL total assay volume/well): • 10 μL of 3× concentrated compound; • 10 μL of 3× concentrated substrate mix (BGG (Sigma G-5009); 3 mM L-Kynurenine in 150 mM Tris Acetate (Sigma K3750); 3 mM α-ketoglutaric acid in 150 mM Tris Acetate (Sigma K2010); and 210 μM pyridoxal 5-phosphate (PLP) in 150 mM Tris Acetate (Sigma 9255)); and • 10 μL of 3× concentrated enzyme (15 nM enzyme in 150 mM Tris Acetate with 0.3% bovine serum).
Plates were sealed and incubated at 37° C. for 15-20 h before reading OD370 on a SpectraMax Plus plate reader. IC50s were generated by comparing the efficacy of compounds across a concentration range to inhibit a reduction in the OD370 value relative to assay wells with DMSO added in place of concentrated compound. Biological data for the Examples may be found in Table 2.

Chain of human KAT II (hKAT II) enzyme (Q8N5Z0 30-425): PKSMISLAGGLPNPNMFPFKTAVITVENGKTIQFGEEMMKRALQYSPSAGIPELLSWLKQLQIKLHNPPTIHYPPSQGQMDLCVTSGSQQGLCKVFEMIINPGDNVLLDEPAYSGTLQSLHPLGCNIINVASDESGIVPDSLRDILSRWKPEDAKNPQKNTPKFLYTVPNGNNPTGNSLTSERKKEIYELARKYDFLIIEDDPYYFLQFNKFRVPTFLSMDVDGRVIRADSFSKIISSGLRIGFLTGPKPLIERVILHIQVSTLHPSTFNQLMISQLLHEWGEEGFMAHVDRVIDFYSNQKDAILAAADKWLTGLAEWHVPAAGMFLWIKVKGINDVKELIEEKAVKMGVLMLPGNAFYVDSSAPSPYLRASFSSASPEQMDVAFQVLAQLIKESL

SMILES | IC50
COc1ncccc1-c1ccc2c(c1)CC(N)c1n[nH]c(=O)n1-2 (stereo not shown) [Example 33, 4—amino—7—(2—methoxypyridin—3—yl)—4,5—dihydro[1,2,4]triazolo[4,3—a]quinolin—1(2H)—one, trifluoroacetate salt] | 197 nM
NC1Cc2cc(-c3cccc(F)c3)ccc2-n2c1n[nH]c2=O (stereo not shown) [Example 34, 4—amino—7—(3—fluorophenyl)—4,5—dihydro[1,2,4]triazolo[4,3—a]quinolin—1(2H)—one, trifluoroacetate salt] | 415 nM
NC1Cc2cc(-c3ccc(Cl)cc3Cl)ccc2-n2c1n[nH]c2=O (stereo not shown) [Example 35, 4—amino—7—(2,4—dichlorophenyl)—4,5—dihydro[1,2,4]triazolo[4,3—a]quinolin—1(2H)—one, trifluoroacetate salt] | 1380 nM
Cn1nccc1-c1ccc2c(c1)CC(N)c1n[nH]c(=O)n1-2 (stereo not shown) [Example 36, 4—amino—7—(1—methyl—1H—pyrazol—5—yl)—4,5—dihydro[1,2,4]triazolo[4,3—a]quinolin—1(2H)—one, trifluoroacetate salt] | 632 nM
NC1Cc2cc(-c3ccccc3OC(F)(F)F)ccc2-n2c1n[nH]c2=O (stereo not shown) [Example 37, 4—amino—7—[2—(trifluoromethoxy)phenyl]—4,5—dihydro[1,2,4]triazolo[4,3—a]quinolin—1(2H)—one, trifluoroacetate salt] | 527 nM
Cc1ccc(C)c(-c2ccc3c(c2)CC(N)c2n[nH]c(=O)n2-3)c1 (stereo not shown) [Example 38, 4—amino—7—(2,5-dimethylphenyl)—4,5—dihydro[1,2,4]triazolo[4,3—a]quinolin—1(2H)—one, trifluoroacetate salt] | 591 nM
CCOc1ccc(Cl)cc1-c1ccc2c(c1)CC(N)c1n[nH]c(=O)n1-2 (stereo not shown) [Example 39, 4—amino—7—(5—chloro—2—ethoxyphenyl)—4,5—dihydro[1,2,4]triazolo[4,3—a]quinolin—1(2H)—one, trifluoroacetate salt] | 968 nM
NC1Cc2cc(-c3ccccc3C(F)(F)F)ccc2-n2c1n[nH]c2=O (stereo not shown) [Example 40, 4—amino—7—[2—(trifluoromethyl)phenyl]—4,5—dihydro[1,2,4]triazolo[4,3—a]quinolin—1(2H)—one, trifluoroacetate salt] | 320 nM
Cn1cc2c(-c3ccc4c(c3)CC(N)c3n[nH]c(=O)n3-4)cccc2n1 (stereo not shown) [Example 41, 4—amino—7—(2—methyl—2H—indazol—4—yl)—4,5—dihydro[1,2,4]triazolo[4,3—a]quinolin—1(2H)—one, trifluoroacetate salt] | 1080 nM
NC1Cc2cc(-c3ccc(F)nc3)ccc2-n2c1n[nH]c2=O (stereo not shown) [Example 42, 4—amino—7—(6—fluoropyridin—3—yl)—4,5—dihydro[1,2,4]triazolo[4,3—a]quinolin—1(2H)—one, trifluoroacetate salt] | 849 nM
Cc1cc(-c2ccc3c(c2)CC(N)c2n[nH]c(=O)n2-3)cnc1F (stereo not shown) [Example 43, 4—amino—7—(6—fluoro—5—methylpyridin—3—yl)—4,5—dihydro[1,2,4]triazolo[4,3—a]quinolin—1(2H)—one, trifluoroacetate salt] | 263 nM
NC1Cc2cc(Cc3ccccc3)ccc2-n2c1n[nH]c2=O (stereo not shown) [Example 44, 4—amino—7—benzyl—4,5—dihydro[1,2,4]triazolo[4,3—a]quinolin—1(2H)—one, hydrochloride salt] | 426 nM
NC1Cc2cc(-c3ccccc3)ccc2-n2c1n[nH]c2=O (stereo not shown) [Example 45, 4—amino—7—phenyl—4,5-dihydro[1,2,4]triazolo[4,3—a]quinolin—1(2H)—one, hydrochloride salt] | 790 nM
COc1cc2c(cc1Cc1ccccc1)CC(N)c1nncn1-2 (stereo not shown) [Example 46, 7—benzyl—8—methoxy—4,5—dihydro[1,2,4]triazolo[4,3—a]quinolin—4—amine, hydrochloride salt] | 1130 nM
COc1cc2c(cc1Cc1ccccc1)CC(N)c1n[nH]c(=O)n1-2 (stereo not shown) [Example 47, 4—amino—7—benzyl—8—methoxy—4,5—dihydro[1,2,4]triazolo[4,3—a]quinolin—1(2H)—one, hydrochloride salt] | 637 nM
NC1Cc2cc(Oc3ccccc3)ccc2-n2c1n[nH]c2=O (stereo not shown) [Example 48, 4—amino—7—phenoxy—4,5—dihydro[1,2,4]triazolo[4,3—a]quinolin—1(2H)—one, hydrochloride salt] | 83.7 nM
